Test results from patent US9284320B2, “Ticagrelor adducts with divalent metal salts” (Lek Pharmaceuticals d.d., priority 2012, dated 2016).

Columns and labels:
[1] = Hygroscopicity observed on isolation of the adduct; assay type: physicochemical; conditions: on air, after filtration under nitrogen
Description: To a solution of TCG (0.30 g) in dry MeCN (4 mL) at 60° C. MgCl2 (60 mg) was added in one portion, and the resulting reaction mixture was stirred at 60° C. for 16 h.
To a solution of TCG (0.20 g) in dry MeCN (5 mL) at 50° C. MgBr2 (74 mg) was added in one portion, and the resulting reaction mixture was stirred at 50° C. for 15 min.

[2] = Physical stability at room temperature (DSC), adduct compared to amorphous TCG; assay type: physicochemical
Description: The so obtained Ia was left at room temperature in a closed vial to test physical stability. DSC analysis was performed after 21 days (FIG. 2) and after 31 days (FIG. 3).
DSC analysis of a sample was performed immediately (FIG. 4). Another sample of the so obtained Ia was left at room temperature to test physical stability.
TCG (0.52 g) was dissolved in 55 mL of aqueous ethanol (50 vol %) with the aid of ultrasonic irradiation. To the solution 33 mL water was poured at once and the obtained turbid mixture was frozen immediately in liquid nitrogen. The material was then lyophilized for 72 h at ˜0.8 mbar. DSC analysis of a sample was performed immediately (FIG. 6). Another sample of the so obtained amorphous TCG was left at room temperature to test physical stability.
Conditions for obtaining DSC thermograms: Thermograms were obtained with Mettler Toledo DSC822e differential scanning calorimeter. The sample (1-10 mg) was placed in an unsealed aluminium pan with a hole and heated at 10° C./min in the temperature range from 30° C. to 250° C.

[3] = general statement in the description; cited from earlier work

CCCSc1nc(N[C@@H]2C[C@H]2c2ccc(F)c(F)c2)c2nnn([C@@H]3C[C@H](OCCO)[C@@H](O)[C@H]3O)c2n1 [Ib]
hygroscopicity [1]: hygroscopic on air

CCCSc1nc(N[C@@H]2C[C@H]2c2ccc(F)c(F)c2)c2nnn([C@@H]3C[C@H](OCCO)[C@@H](O)[C@H]3O)c2n1 [amorphous basic ticagrelor]
chemical and physical stability (conversion of amorphous state to crystalline form) [2]: quickly converts to the more stable crystalline forms

CCCSc1nc(N[C@@H]2C[C@H]2c2ccc(F)c(F)c2)c2nnn([C@@H]3C[C@H](OCCO)[C@@H](O)[C@H]3O)c2n1 [Ticagrelor, 3-[7-[[(1R,2S)-2-(3,4-difluorophenyl)cyclopropyl]amino]-5-(propylthio)-3H-1,2,3-triazolo[4,5-d]pyrimidin-3-yl]-5-(2-hydroxyethoxy)-(1S,2S,3R,5S)-1,2-cyclopentanediol]
solubility in water [3]: low solubility in water
